# Measured values: ChEMBL document CHEMBL2040838, “Synthesis of C-4-modified zanamivir analogs as neuraminidase inhibitors and their anti-AIV activities” (Eur J Med Chem, 2012)
# Columns and labels:
# Neuraminidase [1] = biological target: T1, Neuraminidase (Influenza A virus, UniProt B4URF0); assay: Inhibition of Influenza A virus (A/Indonesia/5/2005(H5N1)) […] recombinant neuraminidase using 2'-(4-methylumbelliferyl)-alpha-D-N-acetylneuraminic acid as substrate after 1 hr by fluorescence assay
# Neuraminidase [2] = biological target: T1, Neuraminidase; assay: Inhibition of Influenza A virus (A/Sydney/5/97(H3N2)) recombinant neuraminidase using 2'-(4- methylumbelliferyl)-alpha-D-N-acetylneuraminic acid as substrate after 1 hr by fluorescence assay; design: species or system Influenza A virus (A/Sydney/5/1997(H3N2))
# Influenza A virus [3] = assay: Antiviral activity against Influenza A virus (A/Indonesia/5/2005(H5N1)) […] infected in MDCK cells assessed as protective rate against virus-induced cytopathic effect at 5 uM after 2 days by neutral red uptake assay; format: functional
# in vivo [4] = details: Sprague-Dawley, rat, plasma, iv, 10 mg/kg
# in vivo [5] = details: Sprague-Dawley, rat, po, 10 mg/kg
# in vivo [6] = details: Sprague-Dawley, rat, po, 10 mg/kg; remark: listed apart in the source
# in vivo [7] = details: Sprague-Dawley, rat, plasma, po, 10 mg/kg
# Influenza A virus [8] = assay: Antiviral activity against Influenza A virus (A/Indonesia/5/2005(H5N1)) […] infected in MDCK cells assessed as protective rate against virus-induced cytopathic effect at 4 uM after 2 days by neutral red uptake assay; format: functional
# in vivo [9] = details: Sprague-Dawley, rat, iv, 2 mg/kg
# [10] = Clearance in Sprague-Dawley rat at 2 mg/kg, iv; format: ADME, organism-based; design: dose 2 mg/kg, route intravenous; details: in vivo
# [11] = Volume of distribution in Sprague-Dawley rat at 2 mg/kg, iv; format: ADME, organism-based; design: dose 2 mg/kg, route intravenous; details: in vivo
# T1 sequence (B4URF0 whole entry): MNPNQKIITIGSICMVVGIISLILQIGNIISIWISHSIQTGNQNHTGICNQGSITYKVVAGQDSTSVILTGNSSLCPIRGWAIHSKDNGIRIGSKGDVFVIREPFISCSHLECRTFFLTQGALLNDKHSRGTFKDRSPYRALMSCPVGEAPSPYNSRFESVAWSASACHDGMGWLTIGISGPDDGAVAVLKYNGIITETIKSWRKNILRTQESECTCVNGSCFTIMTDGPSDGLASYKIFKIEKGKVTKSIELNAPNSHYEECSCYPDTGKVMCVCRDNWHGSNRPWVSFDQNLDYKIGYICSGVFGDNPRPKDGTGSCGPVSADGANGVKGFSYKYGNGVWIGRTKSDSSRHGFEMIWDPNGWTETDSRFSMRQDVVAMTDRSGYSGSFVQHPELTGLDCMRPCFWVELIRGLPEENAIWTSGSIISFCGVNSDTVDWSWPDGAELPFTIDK
Structure (SMILES),IC50 (Neuraminidase [1]) [µM],IC50 (Neuraminidase [2]) [µM],Activity (Influenza A virus [3]) [%],Activity (Influenza A virus [8]) [%],further results
CC(=O)N[C@H]1[C@H]([C@H](O)[C@H](O)CO)OC(C(=O)O)=C(C/C=C/c2ccc(C)cc2)[C@@H]1O,,,,,Ki (Neuraminidase [1]): 7.3 µM
CC(=O)N[C@H]1[C@H]([C@H](O)[C@H](O)CO)OC(C(=O)O)=C[C@@H]1NC(=O)N[C@H](CC(N)=O)C(=O)O,77.3,22.3,,,
CC(=O)N[C@H]1[C@H]([C@H](O)[C@H](O)CO)OC(C(=O)O)=C[C@@H]1NC(=O)Nc1ccc(C)cc1,933,777,0,,
CC(=O)N[C@H]1[C@H]([C@H](O)[C@H](O)CO)OC(C(=O)O)=C[C@@H]1NC(=O)Nc1ccc(Cl)cc1,> 1000,> 1000,0,,
CC(=O)N[C@H]1[C@H]([C@H](O)[C@H](O)CO)OC(C(=O)O)=C[C@@H]1NC(=O)Nc1ccc(F)cc1,> 1000,> 1000,0,,
COc1ccc(NC(=O)N[C@H]2C=C(C(=O)O)O[C@@H]([C@H](O)[C@H](O)CO)[C@@H]2NC(C)=O)cc1,910,848,6.9,,
CC(=O)N[C@H]1[C@H]([C@H](O)[C@H](O)CO)OC(C(=O)O)=C[C@@H]1NC(=O)NCc1ccco1,38.4,6.6,58,,AUC(0-t) (in vivo [4]): 14000 ng·h/mL; half-life (in vivo [5]): 340 min; bioavailability (in vivo [6]): 2.73%; AUC(0-t) (in vivo [7]): 381 ng·h/mL
CC(=O)N[C@H]1[C@H]([C@H](O)[C@H](O)CO)OC(C(=O)O)=C[C@@H]1NC(=O)NCc1ccccc1,> 1000,705,,,
CC(=O)N[C@H]1[C@H]([C@H](O)[C@H](O)CO)OC(C(=O)O)=C[C@@H]1NC(=S)Nc1ccccc1,> 1000,> 1000,13.6,,
CC(=O)N[C@H]1[C@H]([C@H](O)[C@H](O)CO)OC(C(=O)O)=C[C@@H]1NC(=S)Nc1ccc(C(F)(F)F)cc1,> 1000,894,34.4,,
CC(=O)N[C@H]1[C@H]([C@H](O)[C@H](O)CO)OC(C(=O)O)=C[C@@H]1NC(=S)Nc1cccc(C(F)(F)F)c1,> 1000,> 1000,0,,
COc1cccc(NC(=S)N[C@H]2C=C(C(=O)O)O[C@@H]([C@H](O)[C@H](O)CO)[C@@H]2NC(C)=O)c1,> 1000,> 1000,0,,
CC(=O)N[C@H]1[C@H]([C@H](O)[C@H](O)CO)OC(C(=O)O)=C[C@@H]1NC(=S)Nc1ccccc1F,396,57.1,14.8,,
COc1ccccc1NC(=S)N[C@H]1C=C(C(=O)O)O[C@@H]([C@H](O)[C@H](O)CO)[C@@H]1NC(C)=O,578,89.6,11.7,,
CC(=O)N[C@H]1[C@H]([C@H](O)[C@H](O)CO)OC(C(=O)O)=C[C@@H]1NC(=S)Nc1ccccc1Br,> 1000,> 1000,2.9,,
CC(=O)N[C@H]1[C@H]([C@H](O)[C@H](O)CO)OC(C(=O)O)=C[C@@H]1NC(=S)Nc1cccc2ccccc12,901,674,0,,
CCNC(=S)N[C@H]1C=C(C(=O)O)O[C@@H]([C@H](O)[C@H](O)CO)[C@@H]1NC(C)=O,298,612,,27.8,
CC(=O)N[C@H]1[C@H]([C@H](O)[C@H](O)CO)OC(C(=O)O)=C[C@@H]1NC(=S)NCCCl,67.2,100,,20.3,
CCCCNC(=S)N[C@H]1C=C(C(=O)O)O[C@@H]([C@H](O)[C@H](O)CO)[C@@H]1NC(C)=O,21.4,64.5,,32.6,

Structure (SMILES),IC50 (Neuraminidase [1]) [µM],IC50 (Neuraminidase [2]) [µM],Activity (Influenza A virus [3]) [%],Activity (Influenza A virus [8]) [%],further results
CC(=O)N[C@H]1[C@H]([C@H](O)[C@H](O)CO)OC(C(=O)O)=C[C@@H]1NC(=S)NC1CC1,295,550,,11.3,
CC(=O)N[C@H]1[C@H]([C@H](O)[C@H](O)CO)OC(C(=O)O)=C[C@@H]1NC(=O)NCC(=O)O,113,530,,6.2,
CC(=O)N[C@H]1[C@H]([C@H](O)[C@H](O)CO)OC(C(=O)O)=C[C@@H]1NC(=O)N[C@@H](C)C(=O)O,690,663,,0,
CC(=O)N[C@H]1[C@H]([C@H](O)[C@H](O)CO)OC(C(=O)O)=C[C@@H]1NC(=O)N[C@H](C(=O)O)C(C)C,917,54.4,,0,
CSCC[C@H](NC(=O)N[C@H]1C=C(C(=O)O)O[C@@H]([C@H](O)[C@H](O)CO)[C@@H]1NC(C)=O)C(=O)O,406,413,,0,
CC(=O)N[C@H]1[C@H]([C@H](O)[C@H](O)CO)OC(C(=O)O)=C[C@@H]1NC(=O)N[C@@H](Cc1ccccc1)C(=O)O,> 1000,629,,0,
CC(=O)N[C@H]1[C@H]([C@H](O)[C@H](O)CO)OC(C(=O)O)=C[C@@H]1NC(=O)N1CCC[C@H]1C(=O)O,> 1000,574,,0,
CC(=O)N[C@H]1[C@H]([C@H](O)[C@H](O)CO)OC(C(=O)O)=C[C@@H]1NC(=O)N[C@H](C(=O)O)[C@@H](C)O,392,488,,0,
CC(=O)N[C@H]1[C@H]([C@H](O)[C@H](O)CO)OC(C(=O)O)=C[C@@H]1NC(=O)N[C@@H](CC(N)=O)C(=O)O,2.72,0.58,,8.7,
CC(=O)N[C@H]1[C@H]([C@H](O)[C@H](O)CO)OC(C(=O)O)=C[C@@H]1NC(=O)N[C@@H](CCC(N)=O)C(=O)O,103,58.1,,,
CC(=O)N[C@H]1[C@H]([C@H](O)[C@H](O)CO)OC(C(=O)O)=C[C@@H]1NC(=O)NCC(=O)NCC(=O)O,70.4,68.5,,37.1,
CC(=O)N[C@H]1[C@H]([C@H](O)[C@H](O)CO)OC(C(=O)O)=C[C@@H]1NC(=O)N[C@@H](C)C(=O)NCC(=O)O,126,101,,,
CC(=O)N[C@H]1[C@H]([C@H](O)[C@H](O)CO)OC(C(=O)O)=C[C@@H]1N1CCOCC1,517,567,,26.8,
CC(=O)N[C@H]1[C@H]([C@H](O)[C@H](O)CO)OC(C(=O)O)=C[C@@H]1N1CCCC(C(=O)O)C1 (some centres undefined),532,496,,,
CC(=O)N[C@H]1[C@H]([C@H](O)[C@H](O)CO)OC(C(=O)O)=C[C@@H]1N1CCC2(CC1)OCCO2,738,511,,0,
CC(=O)N[C@H]1[C@H]([C@H](O)[C@H](O)CO)OC(C(=O)O)=C[C@@H]1N1CCN(c2ccccc2)CC1,761,836,,,
CC(=O)N[C@H]1[C@H]([C@H](O)[C@H](O)CO)OC(C(=O)O)=C[C@@H]1N1CCN(c2cccc(C(F)(F)F)c2)CC1,122,271,,,
CC(=O)N[C@H]1[C@H]([C@H](O)[C@H](O)CO)OC(C(=O)O)=C[C@@H]1NC(=N)N [ZANAMIVIR],,,67.2,,half-life (in vivo [9]): 24 min; clearance [10]: 1.42 mL/min/kg; half-life (in vivo [5]): 15 min; Vd [11]: 0.03 L/kg; bioavailability (in vivo [6]): 2.7%
